Experimental data: patent publication US12029739B2, “SHP2 inhibitor and use thereof” (KANAPH THERAPEUTICS INC., priority 2021, dated 2024)

Experiments:
[1] = biological target: T1, SHP2 (full length) (Homo sapiens, UniProt Q06124); assay: Phosphatase assay (PTPase assay) with DiFMUP substrate; format: biochemical; settings: SHP2 activated with SHP2 activating peptide; DiFMUP 80 μM, 2 hours; fluorescence; read-out: IC50 (PTPase aS say)
T1 construct: SHP2 (full length, diluted to 100 pM final concentration in reaction buffer, BPS bioscience, US); purchased BPS bioscience, US
T1 sequence (Q06124 1-593): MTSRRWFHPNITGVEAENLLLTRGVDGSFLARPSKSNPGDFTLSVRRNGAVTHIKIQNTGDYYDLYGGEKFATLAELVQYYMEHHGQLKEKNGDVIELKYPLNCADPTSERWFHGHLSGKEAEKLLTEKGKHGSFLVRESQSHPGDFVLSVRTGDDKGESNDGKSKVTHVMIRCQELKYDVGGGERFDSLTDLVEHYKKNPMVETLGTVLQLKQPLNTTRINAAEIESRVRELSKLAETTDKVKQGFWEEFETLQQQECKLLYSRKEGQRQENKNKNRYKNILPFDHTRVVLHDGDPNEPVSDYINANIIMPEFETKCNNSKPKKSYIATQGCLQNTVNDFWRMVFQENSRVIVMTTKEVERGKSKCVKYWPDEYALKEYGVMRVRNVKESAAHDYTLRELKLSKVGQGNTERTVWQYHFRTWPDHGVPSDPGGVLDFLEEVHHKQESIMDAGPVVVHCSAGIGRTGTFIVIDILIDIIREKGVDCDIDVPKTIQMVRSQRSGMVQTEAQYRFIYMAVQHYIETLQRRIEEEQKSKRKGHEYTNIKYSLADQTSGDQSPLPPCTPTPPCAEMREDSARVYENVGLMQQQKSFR

[2] = test system: phospho-ERK in MIA PaCa2 or H358 cells; assay: Phospho-ERK assay (AlphaLisa); format: cell-based; settings: 1.5 h, MIA PaCa2 or H358 cells, compound incubated 1.5 hours; read-out: IC50 (p-ERK)

| SMILES | IC50 [1] | IC50 [2] |
| --- | --- | --- |
| CC(C)(O)Cn1cnc2ccc(Sc3cnc(N4CCC5(CC4)Cc4scnc4[C@@H]5N)cn3)c(Cl)c2c1=O [Example 152, 6-[5-[(4R)-4-aminospiro[4,6-dihydrocyclopenta[d]thiazole-5,4′-piperidin]-1′-yl]pyrazin-2-yl]sulfanyl-5-chloro-3-(2-hydroxy-2-methyl-propyl)quinazolin-4-one] | 0.003 to 0.1 µM | 0.045 to 1.5 µM |
| COCCn1cnc2ccc(Sc3nc(C(N)=O)c(N4CCC5(CC4)CO[C@@H](C)[C@H]5N)nc3N)c(Cl)c2c1=O [Example 154, 5-amino-3-[(3S,4S)-4-amino-3-methyl-2-oxa-8-azaspiro[4.5]decan-8-yl]-6-[5-chloro-3-(2-methoxyethyl)-4-oxo-quinazolin-6-yl]sulfanyl-pyrazine-2-carboxamide] | 0.003 to 0.1 µM | 0.045 to 1.5 µM |
| COCCn1cnc2ccc(Sc3nc(C(C)=O)c(N4CCC5(CC4)CO[C@@H](C)[C@H]5N)nc3N)c(Cl)c2c1=O [Example 155] | 0.003 to 0.1 µM | > 1.5 µM |
| COCCn1cnc2ccc(Sc3cnc(N4CCC5(CC4)CO[C@@H](C)[C@H]5N)cn3)c(F)c2c1=O [Example 156] | 0.003 to 0.1 µM | < 0.045 µM |
| COCCn1cnc2ccc(Sc3cnc(N4CCC5(CC4)Cc4nc(Cl)sc4[C@@H]5N)cn3)c(Cl)c2c1=O [Example 157, 6-[5-[(6R)-6-amino-2-chloro-spiro[4,6-dihydrocyclopenta[d]thiazole-5,4′-piperidin]-1′-yl]pyrazin-2-yl]sulfanyl-5-chloro-3-(2-methoxyethyl)quinazolin-4-one] | 0.003 to 0.1 µM | 0.045 to 1.5 µM |
| COCCn1cnc2ccc(Sc3cnc(N4CCC5(CC4)Cc4scnc4[C@H]5N)c(CO)n3)c(Cl)c2c1=O [Example 170, (S)-6-((5-(4-amino-4,6-dihydrospiro[yclopenta[d]thiazole-5,4′-piperidin]-1′-yl)-6-(hydroxymethyl)pyrazin-2-yl)thio)-5-chloro-3-(2-methoxyethyl)quinazolin-4(3H)-one] | < 0.003 µM | < 0.045 µM |
| COCCn1cnc2ccc(Sc3cnc(N4CCC5(CC4)Cc4ncsc4[C@H]5N)c(C(N)=O)n3)c(Cl)c2c1=O [Example 171, (S)-3-(6-amino-4,6-dihydrospiro[cyclopenta[d]thiazole-5,4′-piperidin]-1′-yl)-6-((5-chloro-3-(2-methoxyethyl)-4-oxo-3,4-dihydroquinazolin-6-yl)thio)pyrazine-2-carboxamide] | < 0.003 µM | < 0.045 µM |
| COCCn1cnc2ccc(Sc3cnc(N4CCC5(CC4)Cc4scnc4[C@H]5N)c(C(N)=O)n3)c(Cl)c2c1=O [Example 172, (S)-3-(4-amino-4,6-dihydrospiro[cyclopenta[d]thiazole-5,4′-piperidin]-1′-yl)-6-((5-chloro-3-(2-methoxyethyl)-4-oxo-3,4-dihydroquinazolin-6-yl)thio)pyrazine-2-carboxamide] | < 0.003 µM | < 0.045 µM |
| NC(=O)c1nc(Sc2ccc3ncn(CC4CCOCC4)c(=O)c3c2Cl)cnc1N1CCC2(CC1)Cc1ncsc1[C@H]2N [Example 174, (S)-3-(6-amino-4,6-dihydrospiro[cyclopenta[d]thiazole-5,4′-piperidin]-1′-yl)-6-((5-chloro-4-oxo-3-((tetrahydro-2H-pyran-4-yl)methyl)-3,4-dihydroquinazolin-6-yl)thio)pyrazine-2-carboxamide] | < 0.003 µM | < 0.045 µM |
| COC(C)Cn1cnc2ccc(Sc3ncc(N4CCC5(CC4)Cc4ncsc4[C@H]5N)nc3N)c(Cl)c2c1=O (stereo partly drawn) [Example 176] | < 0.003 µM | < 0.045 µM |
| COC(C)Cn1cnc2ccc(Sc3ncc(N4CCC5(CC4)Cc4scnc4[C@H]5N)nc3N)c(Cl)c2c1=O (stereo partly drawn) [Example 177] | < 0.003 µM | < 0.045 µM |

Second part, the compound after the results:

| IC50 [1] | IC50 [2] | SMILES |
| --- | --- | --- |
| < 0.003 µM | 0.045 to 1.5 µM | COCCn1cnc2ccc(Sc3cnc(N4CCC5(CC4)Cc4scnc4[C@@H]5N)cn3)c(Cl)c2c1=O [Example 150, 6-[5-[(4R)-4-aminospiro[4,6-dihydrocyclopenta[d]thiazole-5,4′-piperidin]-1′-yl]pyrazin-2-yl]sulfanyl-5-chloro-3-(2-methoxyethyl)quinazolin-4-one] |
| < 0.003 µM | < 0.045 µM | COCCn1cnc2ccc(Sc3cnc(N4CCC5(CC4)Cc4scnc4[C@H]5N)cn3)c(Cl)c2c1=O [Example 151, 6-[5-[(4S)-4-aminospiro[4,6-dihydrocyclopenta[d]thiazole-5,4′-piperidin]-1′-yl]pyrazin-2-yl]sulfanyl-5-chloro-3-(2-methoxyethyl)quinazolin-4-one] |
| < 0.003 µM | < 0.045 µM | COCCn1cnc2ccc(Sc3cnc(N4CCC5(CC4)CO[C@@H](C)[C@H]5N)c(CO)n3)c(Cl)c2c1=O [Example 153, 6-[5-[(3S,4S)-4-amino-3-methyl-2-oxa-8-azaspiro[4.5]decan-8-yl]-6-(hydroxymethyl)pyrazin-2-yl]sulfanyl-5-chloro-3-(2-methoxyethyl)quinazolin-4-one] |
| < 0.003 µM | < 0.045 µM | COCCn1cnc2ccc(Sc3cnc(N4CCC5(CC4)Cc4ccc(OC)cc4[C@H]5N)cn3)c(Cl)c2c1=O [Example 158, 6-[5-[(1S)-1-amino-6-methoxy-spiro[indane-2,4′-piperidin]-1′-yl]pyrazin-2-yl]sulfanyl-5-chloro-3-(2-methoxyethyl)quinazolin-4-one] |
| < 0.003 µM | < 0.045 µM | CC(C)(O)Cn1cnc2ccc(Sc3cnc(N4CCC5(CC4)Cc4ncccc4[C@@H]5N)cn3)c(Cl)c2c1=O [Example 159, 6-[5-[(5R)-5-aminospiro[5,7-dihydrocyclopenta[b]pyridine-6,4′-piperidin]-1′-yl]pyrazin-2-yl]sulfanyl-5-chloro-3-(2-hydroxy-2-methylpropyl)quinazolin-4-one] |
| < 0.003 µM | < 0.045 µM | CC(C)(O)Cn1cnc2ccc(Sc3cnc(N4CCC5(CC4)Cc4scnc4[C@H]5N)cn3)c(Cl)c2c1=O [Example 160, 6-[5-[(4S)-4-amino[4,6-dihydrocyclopenta[d]thiazole-5,4′-piperidin]-1′-yl]pyrazin-2-yl]sulfanyl-5-chloro-3-(2-hydroxy-2-methyl-propyl)quinazolin-4-one] |
| < 0.003 µM | < 0.045 µM | COCCn1cnc2ccc(Sc3cnc(N4CCC5(CC4)Cc4nc(Cl)sc4[C@H]5N)cn3)c(Cl)c2c1=O [Example 161, 6-[5-[(6S)-6-amino-2-chloro-spiro[4,6-dihydrocyclopenta[d]thiazole-5,4′-piperidin]-1′-yl]pyrazin-2-yl]sulfanyl-5-chloro-3-(2-methoxyethyl)quinazolin-4-one] |
| < 0.003 µM | < 0.045 µM | COCCn1cnc2ccc(Sc3cnc(N4CCC5(CC4)Cc4ccc(O)cc4[C@H]5N)cn3)c(Cl)c2c1=O [Example 163, (S)-6-((5-(1-amino-6-hydroxy-1,3-dihydrospiro(indene-2,4′-piperidin]-1′-yl)pyrazin-2-yl)thio)-5-chloro-3-(2-methoxyethyl)quinazolin-4(31-1)-one] |
| < 0.003 µM | < 0.045 µM | CC(C)(O)Cn1cnc2ccc(Sc3ncc(N4CCC5(CC4)Cc4scnc4[C@H]5N)nc3N)c(Cl)c2c1=O [Example 165, (S)-6-((3-amino-5-(4-amino-4,6-dihydrospiro[cyclopenta[d]thiazole-5,4′-piperidin]-1′-yl)pyrazin-2-yl)thio)-5-chloro-3-(2-hydroxy-2-methylpropyl)quinazolin-4(3H)-one] |
| < 0.003 µM | < 0.045 µM | CC(C)(O)Cn1cnc2ccc(Sc3ncc(N4CCC5(CC4)Cc4ncsc4[C@H]5N)nc3N)c(Cl)c2c1=O [Example 166, (S)-6-((3-amino-5-(6-amino-4,6-dihydrospiro[cyclopenta[d]thiazole-5,4′-piperidin]-1′-yl)pyrazin-2-yl)thio)-5-chloro-3-(2-hydroxy-2-methylpropyl)quinazolin-4(3H)-one] |
| < 0.003 µM | 0.045 to 1.5 µM | COCCn1cnc2ccc(Sc3ncc(N4CCC5(CC4)Cc4scnc4[C@H]5N)nc3N)c(Cl)c2c1=O [Example 167, (S)-6-((3-amino-5-(4-amino-4,6-dihydrospiro[cyclopenta[d]thiazole-5,4′-piperidin]-1′-yl)pyrazin-2-yl)thio)-5-chloro-3-(2-methoxyethyl)quinazolin-4(3H)-one] |
| < 0.003 µM | < 0.045 µM | COCCn1cnc2ccc(Sc3cnc(N4CCC5(CC4)Cc4ncccc4[C@H]5N)c(CO)n3)c(Cl)c2c1=O [Example 168, (S)-6-((5-(5-amino-5,7-dihydrospiro[cyclopenta[b]pyridine-6,4′-piperidin]-1′-yl)-6-(hydroxymethyl)pyrazin-2-yl)thio)-5-chloro-3-(2-methoxyethyl)quinazolin-4(3H)-one] |
| < 0.003 µM | < 0.045 µM | COCCn1cnc2ccc(Sc3cnc(N4CCC5(CC4)Cc4ncsc4[C@H]5N)c(CO)n3)c(Cl)c2c1=O [Example 169, (S)-6-((5-(6-amino-4,6-dihydrospiro[yclopenta[d]thiazole-5,4′-piperidin]-1′-yl)-6-(hydroxymethyl)pyrazin-2-yl)thio)-5-chloro-3-(2-methoxyethyl)quinazolin-4(3H)-one] |
